Legend:
tracheal muscle = assay: Tracheal preparations of the guinea pig, blockade of isoproterenol relaxation; format: cell-based; details: for blocking effect of the responses to isoproterenol in the trachea: at concentrations as high as 3×10^-5 mol/l; for selectivity for the cardiac beta 1 adrenoceptor: atria vs trachea, in words
beta-1 adrenoceptor = target: T1, beta-1 adrenoceptor (Rattus norvegicus, UniProt P18090); assay: Inhibition of isoproterenol induced tachycardia in the pithed rat; format: in vivo; details: read-out: Effective Dose (ID50)
T1 construct: from tissue; host or cells: heart of the pithed rat, in vivo

beta adrenoceptor = target: T2, beta adrenoceptor (Cavia porcellus, UniProt H0W3H1); assay: Inhibition of the positive chronotropic isoproterenol effect in spontaneously beating guinea pig atrium; format: cell-based
T2 construct: in the spontaneously beating guinea pig atrium; from tissue; host or cells: guinea pig atrium

[1] = system: cardiac contractile force; assay: Cardiac contractile force in anaesthetised, vagotomized, spinalised cat; format: in vivo; details: in words
Experimental: In the anaesthetised, vagotomized cat spinalised at the level of second cervical vertebrae the compounds exert an increase in cardiac contractile force at a dose of from about 20 to about 2,500 ug/kg i.v. as measured with a strain gauge arch sewn into the left ventricle. The effect may also be measured as a concentration dependent stimulation of the isolated spontaneously beating guinea pig atrium.

T2 sequence (H0W3H1 1-470): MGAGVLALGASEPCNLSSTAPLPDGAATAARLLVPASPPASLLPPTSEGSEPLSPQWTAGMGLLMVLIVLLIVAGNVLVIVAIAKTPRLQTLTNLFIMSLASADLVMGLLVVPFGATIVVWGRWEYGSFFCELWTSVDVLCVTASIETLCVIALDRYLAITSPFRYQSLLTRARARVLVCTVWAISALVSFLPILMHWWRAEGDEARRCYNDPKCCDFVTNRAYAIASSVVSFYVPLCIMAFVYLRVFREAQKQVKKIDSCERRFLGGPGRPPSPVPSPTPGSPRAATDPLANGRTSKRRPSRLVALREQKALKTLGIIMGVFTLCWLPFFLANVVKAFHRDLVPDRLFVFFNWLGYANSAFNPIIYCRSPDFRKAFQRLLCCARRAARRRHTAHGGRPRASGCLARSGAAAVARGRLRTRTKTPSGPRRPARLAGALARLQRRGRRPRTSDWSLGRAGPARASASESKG
T1 sequence (P18090 whole entry): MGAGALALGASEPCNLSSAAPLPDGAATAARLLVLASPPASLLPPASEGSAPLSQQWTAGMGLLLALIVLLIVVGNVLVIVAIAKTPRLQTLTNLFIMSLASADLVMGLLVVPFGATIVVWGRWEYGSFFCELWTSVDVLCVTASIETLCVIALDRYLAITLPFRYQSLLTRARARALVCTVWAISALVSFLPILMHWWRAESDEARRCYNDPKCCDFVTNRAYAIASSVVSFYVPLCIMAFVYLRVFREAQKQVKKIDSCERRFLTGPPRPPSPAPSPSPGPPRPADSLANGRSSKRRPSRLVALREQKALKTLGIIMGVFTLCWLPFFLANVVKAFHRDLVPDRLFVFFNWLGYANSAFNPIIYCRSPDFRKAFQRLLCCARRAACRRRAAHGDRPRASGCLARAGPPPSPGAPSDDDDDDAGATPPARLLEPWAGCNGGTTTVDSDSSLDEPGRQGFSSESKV

ED50 (beta-1 adrenoceptor) [mg/kg]	Kb (beta adrenoceptor) [nM]	Structure (SMILES)	selectivity (tracheal muscle; guinea pig atria vs trachea, known selective beta adrenoceptor blockers)	blocking effect of the responses to isoproterenol in the trachea (tracheal muscle)	selectivity for the cardiac beta 1 adrenoceptor (tracheal muscle)	balance between the agonistic and antagonistic activities [1]
–	–	CC(C)NCC(O)COc1ccc(CC(N)=O)cc1 (centres unmarked) [Atenolol, reference compound]	20	–	–	–
0.1	120	Cc1cc(OCCOCC2CC2)ccc1OCC(O)CNCCNC(=O)C1CCOCC1 (centres unmarked) [Example 1, 1-(2-Methyl-4-(2-cyclopropylmethoxyethoxy)-phenoxy)-3-(2-(tetrahydropyran-4-yl-carbonylamino)ethylamino)-2-propanol]	–	–	–	–
0.02	50	CCCOCCOc1ccc(OCC(O)CNCCNC(=O)C2CCOCC2)c(F)c1 (centres unmarked) [Example 2, 1-(2-fluoro-4-(2-propoxy-ethoxy)phenoxy)-3-(2-(tetrahydropyran-4-yl-carbonylamino)ethylamino)-2-propanol]	–	no blocking effect	virtually absolute selectivity	–
0.015	80	CCCOCCOc1ccc(OCC(O)CNCCNC(=O)C2CCOCC2)cc1 (centres unmarked) [Example 3]	–	no blocking effect	virtually absolute selectivity	–
0.02	50	CC(C)COCCOc1ccc(OCC(O)CNCCNC(=O)C2CCOCC2)cc1 (centres unmarked) [Example 4]	–	no blocking effect	virtually absolute selectivity	–
0.03	30	O=C(NCCNCC(O)COc1ccc(OCCOCC2CCCC2)cc1)C1CCOCC1 (centres unmarked) [Example 5]	–	no blocking effect	virtually absolute selectivity	–
0.03	20	O=C(NCCNCC(O)COc1ccc(OCCOCCc2ccc(F)cc2)cc1)C1CCOCC1 (centres unmarked) [Example 6]	–	no blocking effect	virtually absolute selectivity	–
0.02	200	O=C(NCCNCC(O)COc1ccc(OCCOCc2ccc(F)cc2)cc1)C1CCOCC1 (centres unmarked) [Example 7]	–	–	–	–
0.02	70	CCCOCCOc1ccc(OCC(O)CNCCNC(=O)C2CCOCC2)c(C#N)c1 (centres unmarked) [Example 8]	–	–	–	–
0.003	40	CCCOCCOc1ccc(OC[C@@H](O)CNC(C)CNC(=O)C2CCOCC2)cc1 (stereo partly drawn) [Example 9, (S)-1-(4-(2-propoxyethoxy)phenoxy)-3((R,S)-2-(tetrahydropyran-4-ylcarbonylamino)-1-methylethylamino)-2-propanol]	–	–	–	particularly favourable
0.0006	30	CCCOCCOc1ccc(OC[C@@H](O)CN[C@H](C)CNC(=O)C2CCOCC2)cc1 [Example 10, (S)-1-(4-(2-propoxyethoxy)phenoxy)-((R)-2-(tetrahydropyran-4-ylcarbonylamino)-1-methylethylamino)-2-propanol]	–	–	–	–
0.02	160	CCCOCCOc1ccc(OC[C@@H](O)CN[C@@H](C)CNC(=O)C2CCOCC2)cc1 [Example 11, (S)-1-(4-(2-propoxyethoxy)phenoxy)-3-((S)-2-(tetrahydropyran-4-yl-carbonylamino)-1-methylethylamino)-2-propanol]	–	–	–	–
0.01	30	C[C@H](CNC(=O)C1CCOCC1)NCC(O)COc1ccc(OCCOCC2CCCC2)cc1 (some centres unmarked) [Example 15]	–	no blocking effect	virtually absolute selectivity	–
0.005	70	CC(C)COCCOc1ccc(OCC(O)CN[C@H](C)CNC(=O)C2CCOCC2)cc1 (some centres unmarked) [Example 21]	–	–	–	–
–	–	O=C(NCCNCC(O)COc1ccc(O)cc1F)C1CCOCC1 (centres unmarked) [Example 33, 1-(2-fluoro-4-hydroxyphenoxy)-3-[2-(tetrahydropyran-4-ylcarbonylamino)ethylamino]-2-propanol]	–	–	–	particularly favourable

Source: patent publication US5242943A, “3-aminopropoxyphenyl derivatives, their preparation and pharmaceutical compositions containing them” (Louis; William J., priority 1984, dated 1993)
